# Laboratory results: patent US8445428B2, “Plant derived antibiotic peptide rich in glycine” (Uniao Brasiliense de Educacao e Cultura—UBEC, priority 2006, dated 2013)
# How the values were obtained:
# Assay type in all cases: cell-based
# Klebsiella sp. = assay: Bioassay against bacteria: growth in LB medium, absorbance at 600 nm; conditions: micromolar concentrations, 37° C. for 4 hours
# Description: (§1) The bioassays against bacteria were performed using 1.0 ml of Luria Bertani medium (NaCl 10 g.l^−1, yeast extract 5 g.l^−1 and bactopeptone […]). Two species, namely Klebsiella sp. and Proteus sp., were used, with the protein under test was restricted to micromolar concentrations. The bacteria grew in the LB medium during 16-18 hours at 37° C. before being evaluated with the proteins. Distilled water was used as negative control and chloramphenicol 40 μg.ml^−1 as positive control. Protein from guava seeds was incubated against the bacteria at 37° C. for 4 hours. Bacterial growth was assessed by an absorbance reading at 600 nm at each hour of the experiment. Each experiment was performed in triplicate.
# Proteus sp. = assay: as above; conditions: micromolar concentrations, 37° C. for 4 hours
# Description: as §1
# Staphylococcus aureus = assay: Preliminary bioassays against gram-positive bacteria; conditions: such as Staphylococcus aureus
sequence,measurement,setting,value
"RESPSSRMECYEQAERYGYGGYGGGRYGGGYGSGRGQPVGQGVERSHDDNRNQPR (SEQ ID NO: 1) (RESPSSRMECYEQAERYGYGGYGGGRYGGGYGSGRGQPVGQGVERSHDDNRNQPR; listed as Psidium guajava) [Pg-AMP1, glycine rich anti-microbial peptide of 55 amino acids, about 5 kDa, purified from guava (Psidium guajava) seeds]",inhibitory activity,Klebsiella sp.,90%
same,inhibitory activity,Proteus sp.,30%
same,inhibitory activity,Staphylococcus aureus,did not reveal any inhibitory activity
